From patent publication US12122761B2, “2-azaspiro[3.4]octane derivatives as M4 agonists” (NOVARTIS AG, priority 2019, dated 2024)
pEC50: −log10 of the molar value.

Tests used:
[1] = biological target: T1, human cloned CHRM2 receptor (M2_CHO cells) (Homo sapiens, UniProt P08172); assay: CHRM2 Ca++ Flux Assay (agonist mode, FDSS 7000EX); format: cell-based; conditions: for Emax: Percent Activity measured to EC100 of Carbachol, read-out: M2 FDSS PA; for pEC50: agonist mode, geometric mean if tested more than once, read-out: M2 FDSS EC50
T1 construct: expressed in transfected cells; host or cells: CHO-K1
T1 sequence (P08172 1-466): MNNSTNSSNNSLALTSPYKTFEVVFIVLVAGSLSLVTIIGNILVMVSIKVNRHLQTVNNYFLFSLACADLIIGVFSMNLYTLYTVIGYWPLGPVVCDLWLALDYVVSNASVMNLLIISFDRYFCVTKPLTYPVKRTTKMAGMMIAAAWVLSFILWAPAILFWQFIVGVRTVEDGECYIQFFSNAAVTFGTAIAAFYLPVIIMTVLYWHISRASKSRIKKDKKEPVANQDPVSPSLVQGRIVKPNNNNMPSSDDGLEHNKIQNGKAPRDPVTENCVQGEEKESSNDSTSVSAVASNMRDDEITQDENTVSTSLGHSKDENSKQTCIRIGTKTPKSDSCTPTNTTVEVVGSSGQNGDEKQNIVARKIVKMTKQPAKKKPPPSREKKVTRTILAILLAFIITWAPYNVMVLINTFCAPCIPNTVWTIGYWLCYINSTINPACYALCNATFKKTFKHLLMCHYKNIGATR
In short: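 Response expressed as percent activity versus the Carbachol EC100, with curves fitted by four-parameter non-linear regression of triplicates. Stable M2_CHO cells were Ca++ dye-loaded and preincubated 60 min at room temperature in assay buffer containing 20 μM ATP; signal imaged for 3 minutes after compound.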

[2] = biological target: T2, human cloned CHRM4 receptor (M4_CHO cells) (Homo sapiens, UniProt P08173); assay: CHRM4 Ca++ Flux Assay (agonist mode, FDSS 7000EX); format: cell-based; conditions: for Emax: Percent Activity, read-out: M4 FDSS PA; for pEC50: geometric mean if tested more than once, read-out: M4 FDSS EC50
T2 construct: expressed in transfected cells; host or cells: CHO-K1
T2 sequence (P08173 1-479): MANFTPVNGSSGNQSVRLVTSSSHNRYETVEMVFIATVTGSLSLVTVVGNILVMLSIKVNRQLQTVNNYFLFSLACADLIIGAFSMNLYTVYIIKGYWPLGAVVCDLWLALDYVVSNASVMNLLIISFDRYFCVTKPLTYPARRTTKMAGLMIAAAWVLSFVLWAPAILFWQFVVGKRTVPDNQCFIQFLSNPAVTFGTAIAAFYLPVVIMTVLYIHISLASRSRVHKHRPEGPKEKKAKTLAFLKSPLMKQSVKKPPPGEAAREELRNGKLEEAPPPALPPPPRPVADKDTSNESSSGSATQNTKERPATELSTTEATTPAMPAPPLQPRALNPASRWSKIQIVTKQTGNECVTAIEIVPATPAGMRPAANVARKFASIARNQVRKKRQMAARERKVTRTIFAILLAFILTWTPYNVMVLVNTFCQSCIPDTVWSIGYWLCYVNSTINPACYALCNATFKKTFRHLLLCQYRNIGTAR
In short: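 Agonist-mode response was expressed as percent of the Carbachol EC100 and fitted with four-parameter nonlinear regression over an 11-point triplicate dose series. Intracellular Ca++ was tracked for 3 min by fluorescent dye in CHO-K1 cells stably expressing human CHRM4. Cells were preincubated 60 min with 20 μM ATP in buffer containing 2.5 mM probenecid.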

SMILES	Emax [1]	pEC50 [1]	Emax [2]	pEC50 [2]
c1ccc(C2CCN([C@@H]3CCC4(C3)CN(c3cncnc3)C4)CC2)c(C2CCOCC2)c1 [Example 5BB, (R)-2-(pyrimidin-5-yl)-6-(4-(2-(tetrahydro-2H-pyran-4-yl)phenyl)piperidin-1-yl)-2-azaspiro[3.4]octane]	13%	6.13	80%	7.77
Fc1ccc(N2CC3(CC[C@@H](N4CCC(c5ccccc5C5CCOCC5)CC4)C3)C2)cn1 [Example 5CC, (R)-2-(6-fluoropyridin-3-yl)-6-(4-(2-(tetrahydro-2H-pyran-4-yl)phenyl)piperidin-1-yl)-2-azaspiro[3.4]octane]	35%	6.33	84%	7.66
COc1ccccc1C1CCN([C@@H]2CCC3(C2)CN(c2cnc(C)cn2)C3)CC1 [Example 5DD, (R)-6-(4-(2-methoxyphenyl)piperidin-1-yl)-2-(5-methylpyrazin-2-yl)-2-azaspiro[3.4]octane]	0%	< 4.60	26%	7.09
Cc1nccnc1N1CC2(CC[C@@H](N3CCC(c4ccccc4OCC(C)(C)O)CC3)C2)C1 [Example 5T, (R)-2-methyl-1-(2-(1-(2-(3-methylpyrazin-2-yl)-2-azaspiro[3.4]octan-6-yl)piperidin-4-yl)phenoxy)propan-2-ol]	0%		25%	7.20
CC(C)(O)COc1ccccc1C1CCN([C@@H]2CCC3(C2)CN(c2ncncn2)C3)CC1 [Example 5U, (R)-1-(2-(1-(2-(1,3,5-triazin-2-yl)-2-azaspiro[3.4]octan-6-yl)piperidin-4-yl)phenoxy)-2-methylpropan-2-ol]	0%		49%	7.55
COc1ccc(F)cc1C1CCN([C@@H]2CCC3(C2)CN(c2ccnnc2)C3)CC1 [Example 5V, (R)-6-(4-(5-fluoro-2-methoxyphenyl)piperidin-1-yl)-2-(pyridazin-4-yl)-2-azaspiro[3.4]octane]	0%		59%	7.70
Fc1cccc(C2CCN([C@@H]3CCC4(C3)CN(c3cncnc3)C4)CC2)c1OC1COC1 [Example 5W, (R)-6-(4-(3-fluoro-2-(oxetan-3-yloxy)phenyl)piperidin-1-yl)-2-(pyrimidin-5-yl)-2-azaspiro[3.4]octane]	16%	7.24	90%	9.00
COCCOc1ccccc1C1CCN([C@@H]2CCC3(C2)CN(c2cccnn2)C3)CC1 [Example 5X, (R)-6-(4-(2-(2-methoxyethoxy)phenyl)piperidin-1-yl)-2-(pyridazin-3-yl)-2-azaspiro[3.4]octane]	0%		24%	7.27
COCCOc1ccccc1C1CCN([C@@H]2CCC3(C2)CN(c2cnc(C)cn2)C3)CC1 [Example 5Y, (R)-6-(4-(2-(2-methoxyethoxy)phenyl)piperidin-1-yl)-2-(5-methylpyrazin-2-yl)-2-azaspiro[3.4]octane]	0%	> 4.59	0%	< 4.60
COCCOc1ccccc1C1CCN([C@@H]2CCC3(C2)CN(c2ccnnc2)C3)CC1 [Example 5Z, (R)-6-(4-(2-(2-methoxyethoxy)phenyl)piperidin-1-yl)-2-(pyridazin-4-yl)-2-azaspiro[3.4]octane]	0%		44%	7.38
CC(C)(O)CCOc1ccccc1C1CCN([C@@H]2CCC3(C2)CN(C(=O)C2COC2)C3)CC1 [Example 7CC, (R)-(6-(4-(2-(3-hydroxy-3-methylbutoxy)phenyl)piperidin-1-yl)-2-azaspiro[3.4]octan-2-yl)(oxetan-3-yl)methanone]	0%		46%	8.30
CC(C)COc1ccccc1C1CCN([C@@H]2CCC3(C2)CN(C(=O)C2COC2)C3)CC1 [Example 7F, (R)-(6-(4-(2-isobutoxyphenyl)piperidin-1-yl)-2-azaspiro[3.4]octan-2-yl)(oxetan-3-yl)methanone]	0%		60%	7.85

The next lines start with the values.

Emax [1]	pEC50 [1]	Emax [2]	pEC50 [2]	SMILES
10%	7.49		9.00	COc1ccc(F)cc1C1CCN([C@@H]2CCC3(C2)CN(C(=O)C2COC2)C3)CC1 [Example 6A, (R)-(6-(4-(5-fluoro-2-methoxyphenyl)piperidin-1-yl)-2-azaspiro[3.4]octan-2-yl)(oxetan-3-yl)methanone]
0%		50%	8.30	O=C(C1COC1)N1CC2(CC[C@@H](N3CCC(c4ccc(F)cc4OC(F)F)CC3)C2)C1 [Example 6B, (R)-(6-(4-(2-(difluoromethoxy)-4-fluorophenyl)piperidin-1-yl)-2-azaspiro[3.4]octan-2-yl)(oxetan-3-yl)methanone]
0%		53%	7.96	CC(C)Oc1cc(F)ccc1C1CCN([C@@H]2CCC3(C2)CN(C(=O)C2COC2)C3)CC1 [Example 6D, (R)-(6-(4-(4-fluoro-2-isopropoxyphenyl)piperidin-1-yl)-2-azaspiro[3.4]octan-2-yl)(oxetan-3-yl)methanone]
0%		65%	8.52	O=C(N1CC2(CC[C@@H](N3CCC(c4ccccc4C4CCOCC4)CC3)C2)C1)C1(F)CC1 [Example 6E, (R)-(1-fluorocyclopropyl)(6-(4-(2-(tetrahydro-2H-pyran-4-yl)phenyl)piperidin-1-yl)-2-azaspiro[3.4]octan-2-yl)methanone]
55%	6.85	71%	8.40	O=C(C1COC1)N1CC2(CC[C@@H](N3CCC(c4ccccc4OC4CC4)CC3)C2)C1 [Example 7A, (R)-(6-(4-(2-cyclopropoxyphenyl)piperidin-1-yl)-2-azaspiro[3.4]octan-2-yl)(oxetan-3-yl)methanone]
77%	6.19	44%	8.40	CC(C)(F)COc1ccccc1C1CCN([C@@H]2CCC3(C2)CN(C(=O)C2COC2)C3)CC1 [Example 7B, (R)-(6-(4-(2-(2-fluoro-2-methylpropoxy)phenyl)piperidin-1-yl)-2-azaspiro[3.4]octan-2-yl)(oxetan-3-yl)methanone]
0%		39%	8.40	O=C(C1COC1)N1CC2(CC[C@@H](N3CCC(c4ccccc4Oc4nccs4)CC3)C2)C1 [Example 7C, (R)-oxetan-3-yl(6-(4-(2-(thiazol-2-yloxy)phenyl)piperidin-1-yl)-2-azaspiro[3.4]octan-2-yl)methanone]
31%	7.04	57%	8.70	N#CCCOc1ccccc1C1CCN([C@@H]2CCC3(C2)CN(C(=O)C2COC2)C3)CC1 [Example 7D, (R)-3-(2-(1-(2-(oxetane-3-carbonyl)-2-azaspiro[3.4]octan-6-yl)piperidin-4-yl)phenoxy)propanenitrile]
0%		42%	7.57	O=C(C1COC1)N1CC2(CC[C@@H](N3CCC(c4ccccc4OCCOC(F)(F)F)CC3)C2)C1 [Example 7DD, (R)-oxetan-3-yl(6-(4-(2-(2-(trifluoromethoxy)ethoxy)phenyl)piperidin-1-yl)-2-azaspiro[3.4]octan-2-yl)methanone]
23%	6.85	59%	8.52	O=C(C1COC1)N1CC2(CC[C@@H](N3CCC(c4ccccc4OC[C@@H]4CCOC4)CC3)C2)C1 [Example 7E, oxetan-3-yl((R)-6-(4-(2-(((R)-tetrahydrofuran-3-yl)methoxy)phenyl)piperidin-1-yl)-2-azaspiro[3.4]octan-2-yl)methanone]
17%	6.33	61%	8.22	O=C(C1COC1)N1CC2(CC[C@@H](N3CCC(c4ccccc4OCCOC4COC4)CC3)C2)C1 [Example 7EE, (R)-oxetan-3-yl(6-(4-(2-(2-(oxetan-3-yloxy)ethoxy)phenyl)piperidin-1-yl)-2-azaspiro[3.4]octan-2-yl)methanone]
